Data set [1] deals with T1, human recombinant dopamine D2 receptor (Homo sapiens, UniProt P14416). Particulars: read-out: D2 affinity Ki ± SEM; cited from earlier work.
A further data set relates to PD model rats. Put plainly: Stepping test (adjusting steps) in PD model rats. As to conditions: 6-OH-Busp 3 mg/kg, sc added to L-DOPA 10 mg/kg. The data set is classed as in vivo, rat. As for the experimental part: The stepping test (Schallert et al., 1992) was performed as described by Kirik et al., 2001 with little modifications. Briefly, the rat was held by the experimenter fixing its hindlimbs with one hand and the forelimb not to be monitored with the other, while the unrestrained forepaw was touching the table. The number of adjusting steps was counted, while the rat was moved sideways along the table surface (90 cm in 5 s), in the forehand and backhand direction, for both forelimbs, and the average of the steps in the two directions is considered.
30 male PD model rats were used for adjusting steps test with the following groups: • 1. Vehicle 1+Vehicle 2 (n=7) • 2. Vehicle 1+L-DOPA (10 mg/kg, sc) (n=7) • 3. 6-OH-Busp (3 mg/kg, sc)+Vehicle 2 (n=8) • 4. 6-OH-Busp (3 mg/kg, sc)+L-DOPA (10 mg/kg, sc)
The PD rats were handled for 3 consecutive days. Vehicle 1 or 6-OH-Busp will s.c. dosed 61 min before adjusting steps test. Vehicle 2 or L-DOPA/Benserazide dosed 60 min before adjusting steps test. On testing day, the rats were held by both hind limbs and the untested forepaw. The test forepaw was placed on a flat surface and dragged in the forehand direction for 90 cm distance over 5 s. The number of adjusting steps was counted for both paws in the backhand and forehand directions of movement. […] Data were analyzed and graphed by Graph Pad Prism 6.

Data set [2] addresses human recombinant dopamine D3 receptor (Homo sapiens, UniProt P35462). As to conditions: read-out: D3 affinity Ki ± SEM; cited from earlier work.
For data set [3] the following is noted: cited from earlier work.
For data set [4], the target named is T1, human recombinant dopamine D2 receptor. As to conditions: saturating concentrations of dopamine; read-out: D2 efficacy IC50 ± SEM; cited from earlier work.
Data set [5] addresses T2, human recombinant dopamine D4 receptor (Homo sapiens, UniProt P21917).
T2 sequence (P21917 1-419): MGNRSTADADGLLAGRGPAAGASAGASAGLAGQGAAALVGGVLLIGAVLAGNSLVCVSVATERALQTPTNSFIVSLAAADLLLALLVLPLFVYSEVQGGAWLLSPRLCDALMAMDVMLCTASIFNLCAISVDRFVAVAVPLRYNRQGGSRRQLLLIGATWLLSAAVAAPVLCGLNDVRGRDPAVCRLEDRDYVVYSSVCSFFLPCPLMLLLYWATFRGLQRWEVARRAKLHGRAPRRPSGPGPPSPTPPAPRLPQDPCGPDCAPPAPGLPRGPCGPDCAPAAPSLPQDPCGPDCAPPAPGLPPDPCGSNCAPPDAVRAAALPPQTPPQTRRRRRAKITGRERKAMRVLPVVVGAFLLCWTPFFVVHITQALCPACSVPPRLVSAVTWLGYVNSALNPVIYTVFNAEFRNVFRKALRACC
As to conditions: read-out: D4 affinity Ki ± SEM; cited from earlier work.

The target of data set [6] is T3, serotonin 5-HT1A receptor (Rattus norvegicus, UniProt P19327).
T3 construct: host or cells: rat brain in vivo (dorsal raphe, hippocampus)
T3 sequence (P19327 1-422): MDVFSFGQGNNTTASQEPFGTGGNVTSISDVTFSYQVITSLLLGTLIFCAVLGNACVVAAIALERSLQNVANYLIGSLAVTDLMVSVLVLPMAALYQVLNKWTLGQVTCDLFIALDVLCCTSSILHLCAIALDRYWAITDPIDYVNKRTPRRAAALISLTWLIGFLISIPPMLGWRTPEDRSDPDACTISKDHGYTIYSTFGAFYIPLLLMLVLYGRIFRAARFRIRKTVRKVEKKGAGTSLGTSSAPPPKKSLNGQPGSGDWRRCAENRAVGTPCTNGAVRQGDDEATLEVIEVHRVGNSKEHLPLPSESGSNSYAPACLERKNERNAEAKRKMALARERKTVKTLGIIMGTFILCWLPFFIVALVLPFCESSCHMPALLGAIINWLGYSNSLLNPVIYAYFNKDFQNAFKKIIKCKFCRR
Particulars: rats, intravenous infusions to steady-state plasma levels, cited from earlier work.

SMILES strings stand for the structures. Read-outs that look alike come from different tables or passages of the source.

T1 sequence (P14416 whole entry): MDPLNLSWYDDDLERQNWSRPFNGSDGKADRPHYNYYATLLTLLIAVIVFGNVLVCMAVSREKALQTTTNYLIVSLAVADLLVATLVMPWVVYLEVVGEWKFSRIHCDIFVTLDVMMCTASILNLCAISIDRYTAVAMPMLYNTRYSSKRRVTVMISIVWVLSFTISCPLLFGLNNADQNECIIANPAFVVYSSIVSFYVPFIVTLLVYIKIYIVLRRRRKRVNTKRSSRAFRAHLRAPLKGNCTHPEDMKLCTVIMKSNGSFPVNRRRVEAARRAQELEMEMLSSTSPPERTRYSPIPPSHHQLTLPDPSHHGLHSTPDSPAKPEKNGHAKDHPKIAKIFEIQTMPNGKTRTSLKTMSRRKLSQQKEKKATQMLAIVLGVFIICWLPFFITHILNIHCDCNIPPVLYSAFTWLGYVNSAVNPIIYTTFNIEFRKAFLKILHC
human recombinant dopamine D3 receptor, sequence (P35462 whole entry): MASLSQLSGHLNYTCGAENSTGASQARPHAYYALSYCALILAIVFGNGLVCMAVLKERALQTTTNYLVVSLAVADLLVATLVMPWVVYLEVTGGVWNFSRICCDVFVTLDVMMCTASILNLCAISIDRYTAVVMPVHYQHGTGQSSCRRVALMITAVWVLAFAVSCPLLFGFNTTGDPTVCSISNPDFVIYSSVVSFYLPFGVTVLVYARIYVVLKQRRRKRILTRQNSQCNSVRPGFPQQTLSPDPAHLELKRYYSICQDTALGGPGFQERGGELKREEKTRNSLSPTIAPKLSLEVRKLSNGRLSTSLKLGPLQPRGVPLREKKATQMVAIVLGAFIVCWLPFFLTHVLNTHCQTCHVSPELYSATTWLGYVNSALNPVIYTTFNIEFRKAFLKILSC

Turning to `O=C1CC2(CCCC2)C(O)C(=O)N1CCCCN1CCN(c2ncccn2)CC1` (racemic) [6-OH-Busp], the Ki is 5390 ± 425 nM in data set [1], 795 ± 84 nM in data set [2] and 40.4 ± 17.5 nM in data set [5]. Further, the “effect on adjusting steps of adding 6-OH-Busp to L-DOPA” value in the data set with PD model rats was “no significant different effect”. The “exposure (area under the concentration-time profile) of metabolite relative to parent compound” value in data set [3] (oral dosing of buspirone in rats) is 12 fold. For the same compound, the Bioavailability in data set [3] (rats) was 19%. For the same compound, the plasma half-life in data set [3] (rats) is 1.2 ± 0.2 h. In data set [4], the concentration for half-maximal inhibition (IC50) is 3100 ± 1800 nM. For the same compound, the half-maximal effective concentration (EC50) is 1000 ± 300 nM in data set [6] (dorsal raphe (presynaptic), read-out: 5-HT1A receptor occupancy EC50, dorsal raphe) and 4000 ± 600 nM in data set [6] (hippocampus (postsynaptic), read-out: 5-HT1A receptor occupancy EC50, hippocampus).

The values are drawn from US11478476B2 (CONTERA PHARMA APS, priority 2014, dated 2022).
